Molecular target: T1, GLUT3 (Homo sapiens, UniProt P11169)
T1 construct: expressed in transfected cells; host or cells: Saccharomyces cerevisiae hxt0 strain EBY.S7 (fgy1)
T1 sequence (P11169 1-496): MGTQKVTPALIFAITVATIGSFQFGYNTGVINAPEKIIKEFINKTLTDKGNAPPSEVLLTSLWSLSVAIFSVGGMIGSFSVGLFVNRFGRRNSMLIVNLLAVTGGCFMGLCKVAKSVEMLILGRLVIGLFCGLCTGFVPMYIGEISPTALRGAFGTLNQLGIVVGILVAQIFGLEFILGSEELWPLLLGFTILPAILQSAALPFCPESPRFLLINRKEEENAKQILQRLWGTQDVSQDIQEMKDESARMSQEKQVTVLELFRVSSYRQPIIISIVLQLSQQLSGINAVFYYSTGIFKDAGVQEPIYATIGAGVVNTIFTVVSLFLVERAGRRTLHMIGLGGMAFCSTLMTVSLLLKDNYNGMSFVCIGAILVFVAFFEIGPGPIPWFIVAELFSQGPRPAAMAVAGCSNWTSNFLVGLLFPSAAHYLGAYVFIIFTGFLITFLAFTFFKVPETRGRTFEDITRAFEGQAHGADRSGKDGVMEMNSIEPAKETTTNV
Assay: Glucose transport assay, wild-type GLUT3 expressed in hxt^0 yeast cells EBY.S7 (C^14-glucose uptake)
Format: cell-based
Conditions: wild-type GLUT3 in hxt^0 yeast cells, 3 mM glucose, uptake 10 min; read-out: IC50 for GLUT3 transport inhibition
From the text: To experimentally validate the ligand candidates determined by the virtual ligand screening, we tested their effect on GLUT3 transport activity. For this, we used the recently established assay system[67] in which GLUT3 is expressed in a yeast strain devoid of endogenous hexose transporters (hxt^0) so that glucose uptake into cells relies solely on the activity of GLUT3.
We determined GLUT3 transport activity by measuring the accumulation of radioactive glucose inside whole hxt^0 yeast cells (see “Materials and methods” for details). To select an appropriate substrate concentration for transport inhibition screening, we assessed the KM of glucose for GLUT3 in hxt^0 cells. […] Indeed, functional expression of human GLUTs in hxt^0 cells often requires mutations in genes related to yeast lipid composition[65],[73] as well as single-site mutations that may favor the outward-facing conformation of the transporters[65]–[67].
Hexose transporter deficient yeast strains (hxt^0) EBY.VW4000 for expression of GLUT5, EBY.S7 (carrying the fgy1 mutation) for expression of GLUT1-3, and SDY.022 (EBY.S7 Δerg4) for expression of GLUT4 cells, and corresponding plasmids[65],[66],[73] were from the labs of Drs. Eckhard Boles and Mislav Oreb (Goethe University, Germany). Media ingredients and buffer components were from VWR or Millipore Sigma. Commercial providers for chemicals tested for GLUT3 inhibition are listed in Supplementary Table S1. C^14-glucose was from Moravek Inc (Brea, CA, USA). Cancer cell lines were from ATCC (https://www.atcc.org).
The plasmids containing functional constructs of GLUT1-5 were transformed in the corresponding hxt^0 strains[65],[66],[73] (EBY.VW4000 for GLUT5S72Y, EBY.S7 for GLUT1, GLUT2∆loopS_Q455R, GLUT3 and GLUT3S66Y, and SDY.022 for GLUT4) and grown on 2% (w/v) agar plates of the respective media supplemented with 1% (w/v) maltose. An initial culture of ~ 10 ml was started with a few colonies and grown for 2–3 days if the media was SC-uracil with 1% (w/v) maltose (GLUT1, GLUT3, GLUT4) or 1–2 days if the media was YEP with 1% (w/v) maltose and 100 µg/ml geneticin G418 (GLUT2∆loopS_Q455R and GLUT5S72Y). Cells were washed once in the corresponding media in which maltose was substituted with 0.1–2% hexose substrate for the expressing GLUT (i.e., SC-uracil, 2% (w/v) glucose for GLUT1; SC-uracil, 0.2% (w/v/) glucose for GLUT3 and GLUT4; YEP, 0.2% (w/v) glucose, 100 µg/ml geneticin G418 for GLUT2∆loopS_Q455R, and YEP, 2% (w/v) fructose for GLUT5 S72Y). Then, cells were transferred in the same media so that OD600nm ~ 0.5 and grown further for 1–2 days.
For transport activity assay, cells in the hexose media were centrifuged (1000×g, 5 min, room temperature), washed once with PBS buffer (10 mM Na2HPO4, 1.8 mM KH2PO4, 2.7 mM KCl, 137 mM NaCl, pH 7.4), and resuspended in PBS buffer at an OD600nm ~ 10; each assay contained 100 µl of this cell solution. Transport activity assay was started by adding C^14-hexose at a substrate concentration corresponding to the respective KM (5 mM glucose for GLUT1 or GLUT4, 3 mM glucose for GLUT3 or 1.5 mM glucose for GLUT3S66Y, 15 mM glucose for GLUT2∆loopS_Q455R, and 10 mM fructose for GLUT5S72Y); for determining the glucose KM in GLUT3 and GLUT3S66Y, substrate concentrations were varied accordingly. […] The filtration membranes were transferred into scintillation vials with 10 ml of Scintillation Solution (BioSafeII; Research Products International, Mount Prospect, IL, USA), and vortexed briefly. The radioactivity was determined with a scintillation counter (Tri-carb 2900TR, Perkin Elmer, USA).

Compound	IC50 [µM]
CC(=O)Nc1ccc(S(=O)(=O)Nc2ccc(Nc3cc(N(C)C)nc(C)n3)cc2)cc1 [G3iA, N-(4-{[(4-{[6-(dimethylamino)-2-methylpyrimidin-4-yl]amino}phenyl)amino]sulfonyl}phenyl)acetamide]	7.01 ± 1.02
Cc1cccnc1OC1CCN(c2cc(N3CCCC3CO)ncn2)CC1 (stereo not drawn) [G3iC]	12.5 ± 4.4
Cc1cc(NC(=O)CCC2Cc3ccccc3NC2=O)nc(-c2ccccc2)n1 (stereo not drawn) [G3iD]	19.3 ± 4.7
O=C(Nc1cccc(Cl)c1)c1cccc(NC(=O)c2cccc([N+](=O)[O-])c2)c1 [G3iE, N-{3-[(3-chloroanilino)carbonyl]phenyl}-3-nitrobenzamide]	23.6 ± 1.9
COc1ccccc1-n1c(/C=C/c2ccc(O)cc2)nc2ccc(Br)cc2c1=O [G3iB, 6-bromo-2-[(E)-2-(4-hydroxyphenyl)ethenyl]-3-(2-methoxyphenyl)quinazolin-4(3H)-one]	12.2 ± 4
Cc1ccccc1CN(Cc1nnc(C(C)(C)C)o1)c1ccc2nc(O)[nH]c2c1 [G3iF]	38.4 ± 11.8
